One assay concerns the target Prothrombin (Homo sapiens, UniProt P00734). The assay is described as follows: Inhibition of thrombin (unknown origin).
Another assay addresses T1, Coagulation factor XII (Homo sapiens, UniProt P00748).
T1 sequence (P00748 whole entry): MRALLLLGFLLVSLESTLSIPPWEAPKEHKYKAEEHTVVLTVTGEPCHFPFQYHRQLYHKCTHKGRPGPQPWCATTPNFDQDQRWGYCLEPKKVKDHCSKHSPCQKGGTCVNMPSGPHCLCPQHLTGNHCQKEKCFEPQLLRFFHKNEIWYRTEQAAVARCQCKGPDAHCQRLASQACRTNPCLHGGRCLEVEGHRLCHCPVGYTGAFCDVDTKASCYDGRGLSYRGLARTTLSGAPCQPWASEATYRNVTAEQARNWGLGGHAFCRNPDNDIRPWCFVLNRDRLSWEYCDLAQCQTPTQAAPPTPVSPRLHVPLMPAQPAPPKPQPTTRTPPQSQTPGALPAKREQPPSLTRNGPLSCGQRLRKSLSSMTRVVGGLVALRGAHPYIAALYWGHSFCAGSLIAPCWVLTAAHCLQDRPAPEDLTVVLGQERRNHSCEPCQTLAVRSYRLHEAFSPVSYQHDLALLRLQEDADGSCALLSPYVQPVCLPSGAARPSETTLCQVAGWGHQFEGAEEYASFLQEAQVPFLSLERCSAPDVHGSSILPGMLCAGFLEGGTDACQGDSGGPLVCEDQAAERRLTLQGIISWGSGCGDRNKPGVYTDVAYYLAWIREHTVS
The assay is described as follows: Inhibition of human fXIIA by fluorescence based analysis.

The next assay concerns the target Coagulation factor X (Homo sapiens, UniProt P00742). The assay is described as follows: Inhibition of human fXA by fluorescence based analysis.

Chain of Coagulation factor X (P00742 41-179 limits assumed): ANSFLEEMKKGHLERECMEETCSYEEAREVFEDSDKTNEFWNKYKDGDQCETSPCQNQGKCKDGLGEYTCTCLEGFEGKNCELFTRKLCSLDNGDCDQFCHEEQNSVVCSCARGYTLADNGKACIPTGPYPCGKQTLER
Chain of Coagulation factor X (P00742 235-488 limits assumed): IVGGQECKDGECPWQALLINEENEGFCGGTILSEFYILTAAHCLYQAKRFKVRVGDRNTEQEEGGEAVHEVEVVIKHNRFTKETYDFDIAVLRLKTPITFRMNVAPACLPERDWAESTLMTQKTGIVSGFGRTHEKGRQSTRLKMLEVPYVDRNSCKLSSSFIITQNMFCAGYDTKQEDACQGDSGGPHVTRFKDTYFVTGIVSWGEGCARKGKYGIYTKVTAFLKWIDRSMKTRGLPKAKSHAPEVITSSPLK

For the compound `NCC1CCC(C(=O)N[C@@H](Cc2ccccc2)C(=O)Nc2ccc(CC(=O)O)cc2)CC1` (some centres undefined), on Prothrombin, the IC50 is above 1000 µM. For the compound `CC(=O)c1ccc(NC(=O)[C@H](Cc2ccccc2)NC(=O)C2CCC(CN)CC2)cc1` (some centres undefined), on Prothrombin, the concentration for half-maximal inhibition (IC50) is above 1000 µM. Turning to `CCOc1ccc(C[C@@H](NC(=O)c2ccccc2)C(=O)N[C@@H](Cc2ccccc2)C(=O)NCc2ccc(CN)cc2)cc1` [US9234000, 3], the IC50 at Coagulation factor XII and at Coagulation factor X was above 10 µM each time.

Usually IC50 stands for the midpoint of a concentration-inhibition curve.
